According to publication PMC5413906, “Structural and functional analysis of Oceanobacillus iheyensis macrodomain reveals a network of waters involved in substrate binding and catalysis” (Open Biology, 2017):

Assays:
Format in all cases: binding
OiMacroD [1] = molecular target: T1, OiMacroD (Oceanobacillus iheyensis, UniProt Q8EP31); experiment: thermal shift, SYPRO Orange; details: 50 mM sodium phosphate pH 7.0, 1 mM ligand; without ligand Tm = 41.7 ± 0.2 °C
T1 construct: gene OB2288

OiMacroD [2] = molecular target: T1, OiMacroD; experiment: X-ray crystal structure, […] Å; details: crystal soaked with 20 mM ADPr; active site
OiMacroD [3] = molecular target: T2, OiMacroD (Oceanobacillus iheyensis, UniProt Q8EP31, G37V); experiment: X-ray crystal structure, […] Å; details: crystal soaked with 20 mM ADPr; active site
T2 construct: gene OB2288
T2 sequence (Q8EP31 entry or part of it G37V): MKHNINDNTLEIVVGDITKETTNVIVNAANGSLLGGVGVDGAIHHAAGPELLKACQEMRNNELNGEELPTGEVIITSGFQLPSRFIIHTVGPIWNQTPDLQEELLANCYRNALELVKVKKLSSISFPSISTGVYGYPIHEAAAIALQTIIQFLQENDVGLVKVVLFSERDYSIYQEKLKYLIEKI

OiMacroD [4] = molecular target: T1, OiMacroD; experiment: thermal shift, SYPRO Orange; details: 50 mM sodium phosphate pH 7.0, 1 mM ligand; without ligand Tm = 41.7 ± 0.2 °C; remark: listed apart in the source
OiMacroD [5] = molecular target: T1, OiMacroD; experiment: X-ray crystal structure, […] Å; details: crystal soaked with 20 mM ADP; active site, two alternative conformations
OiMacroD [6] = molecular target: T1, OiMacroD; experiment: thermal shift, SYPRO Orange; details: 50 mM sodium phosphate pH 7.0, 1 mM ligand; without ligand Tm = 41.7 ± 0.2 °C; remark: listed apart in the source

T1 sequence (Q8EP31 entry or part of it): as the sequence (Q8EP31 entry or part of it G37V) above, with V37G counted along it

Nc1ncnc2c1ncn2[C@@H]1O[C@H](COP(=O)(O)OP(=O)(O)OC[C@H]2OC(O)[C@H](O)[C@@H]2O)[C@@H](O)[C@H]1O (stereo partly drawn) [ADP-ribose]
Tm with 1 mM ADPr (OiMacroD [1]): 47.8 ± 0.1 °C
X-ray crystal structure, 1.77 Å (OiMacroD [2]): OiMacroD-ADPr (5L9K)
X-ray crystal structure, 1.35 Å (OiMacroD [3]): OiMacroD G37V (ADPr) (5LAU)

Nc1ncnc2c1ncn2[C@@H]1O[C@H](COP(=O)(O)OP(=O)(O)O)[C@@H](O)[C@H]1O [ADP]
Tm with 1 mM ADP (OiMacroD [4]): 44.0 ± 0.2 °C
X-ray crystal structure, 1.75 Å (OiMacroD [5]): OiMacroD-ADP (5L9Q)

Nc1ncnc2c1ncn2[C@@H]1O[C@H](COP(=O)(O)O)[C@@H](O)[C@H]1O [AMP]
Tm with 1 mM AMP (OiMacroD [6]): 43.3 ± 0.1 °C
